Where only a bound is given, the exact number is not on record here.

The subject of one test is CWR22RV1 cells. The test is described as follows: Inhibition of proliferation of CWR22RV1 cells (CCK-8). The conditions noted are these: 6 days culture, read-out: IC50 against CWR22RV1 cells. It is filed as cell-based, human. Summed up:
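CWR22RV1 cells (1500/well) were exposed to 9 three-fold compound concentrations (top final 10 μM, 0.1% DMSO) for 6 days. CCK-8 was added for 2.5 h, and absorbance was read at 450 nm. IC50 was fitted with a dose-response-inhibition equation.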
For the compound `CNC(=O)Nc1ccc2c(c1)C1(CC1)CC21OC(=O)N(CC(=O)N2[C@@H](C)CC[C@H]2c2ccc(F)cc2)C1=O` (stereo partly drawn) [Example 373, 1-(3′-(2-((2S,5S)-2-(4-fluorophenyl)-5-methylpyrrolidin-1-yl)-2-oxoethyl)-2′,4′-dioxo-dihydrospiro[cyclopropane-1,1′-indene-3′,5′-oxazolidin]-6′-yl)-3-methylurea], the IC50 was > 2 µM.

The same test, now with this note: Homo sapiens, CWR22Rv1, 144 h, 6 days culture, read-out: IC50 against CWR22RV1 cells.
Take `CNC(=O)Nc1ccc2c(c1)CC[C@@]21OC(=O)N(CC(=O)N2C(c3ccc(F)c(F)c3)CCC2(C)C)C1=O` (stereo partly drawn) [Example 366, 1-((1R)-3′-(2-(5-(3,4-difluorophenyl)-2,2-dimethylpyrrolidin-1-yl)-2-oxoethyl)-2′,4′-dioxo-2,3-dihydrospiro[indene-1,5′-oxazolidine]-5-yl)-3-methylurea]: the IC50 lay in the range of 0.5 to 2 µM.

Consider `C=C[C@H]1CC[C@@H](c2ccc(F)cc2)N1C(=O)CN1C(=O)O[C@@]2(CCc3cc(NC(=O)NC)ccc32)C1=O` [Example 367, 1-((R)-3′-(2-((2S,5R)-2-(4-fluorophenyl)-5-vinylpyrrolidin-1-yl)-2-oxoethyl)-2′,4′-dioxo-2,3-dihydrospiro[indene-1,5′-oxazolidine]-5-yl)-3-methylurea], for which the IC50 was in the range of 0.5 to 2 µM.

As to `CNC(=O)Nc1ccc2c(c1)CC[C@@]21OC(=O)N(CC(=O)N2C(C)(C)CCCC2(C)C)C1=O` [Example 368], the IC50 is > 2 µM.

In the case of `CNC(=O)Nc1ccc2c(c1)CC[C@@]21OC(=O)N(CC(=O)N2C(c3ccc(F)c(F)c3)CC[C@@H]2C)C1=O` (stereo partly drawn) [Example 374, 1-((R)-3′-(2-((5S)-2-(3,4-difluorophenyl)-5-methylpyrrolidin-1-yl)-2-oxoethyl)-2′,4′-dioxo-2,3-dihydrospiro[indene-1,5′-oxazolidine]-5-yl)-3-methylurea], the IC50 was > 2 µM.

`CNC(=O)Nc1ccc2c(c1)CC[C@@]21OC(=O)N(CC(=O)N2C(c3ccncc3)CC[C@@H]2C)C1=O` (stereo partly drawn) [Example 375, 1-methyl-3-(3′-(2-((2S)-2-methyl-5-(pyridin-4-yl)pyrrolidin-1-yl)-2-oxoethyl)-2′,4′-dioxo-2,3-dihydrospiro[indene-1,5′-oxazolidine]-5-yl)urea]: the IC50 is > 2 µM.

On to `C[C@H]1CC[C@@H](c2ccc(F)cc2)N1C(=O)CN1C(=O)O[C@@]2(CCc3cc(NC(=O)C(F)F)ccc32)C1=O` [Example 376, 2,2-difluoro-N—((R)-3′-(2-((2S,5S)-2-(4-fluorophenyl)-5-methylpyrrolidin-1-yl)-2-oxoethyl)-2′,4′-dioxo-2,3-dihydrospiro[indene-1,5′-oxazolidine]-5-yl)acetamide], for which the 50% inhibitory concentration (IC50) fell in the range of 0.5 to 2 µM.

Turning to `CO[C@@H](C)C(=O)Nc1ccc2c(c1)CC[C@@]21OC(=O)N(CC(=O)N2[C@@H](C)CC[C@H]2c2ccc(F)cc2)C1=O` [Example 377, (S)—N—((R)-3′-(2-((2S,5S)-2-(4-fluorophenyl)-5-methylpyrrolidin-1-yl)-2-oxoethyl)-2′,4′-dioxo-2,3-dihydrospiro[indene-1,5′-oxazolidine]-5-yl)-2-methoxypropionamide], the half-inhibitory concentration (IC50) lay in the range of 0.5 to 2 µM.

`CNC(=O)Nc1ccc2c(c1)CC[C@@]21OC(=O)N(CC(=O)N2C(C)CC[C@H]2CN2CCC3(CC2)CC3(F)F)C1=O` (stereo partly drawn) [Example 378, 1-((1R)-3′-(2-((2S)-2-((1,1-difluoro-6-aza-spiro[2.5]octan-6-yl)methyl)-5-methylpyrrolidin-1-yl)-2-oxoethyl)-2′,4′-dioxo-2,3-dihydrospiro[indene-1,5′-oxazolidine]-5-yl)-3-methylurea]: the IC50 was > 2 µM.

On to `CNC(=O)Nc1ccc2c(c1)CC[C@@]21OC(=O)N(CC(=O)N2[C@H](CN3CCC4(CC3)CC4(F)F)CC[C@@H]2C)C1=O` [Example 379, 1-((R)-3′-(2-((2S,5S)-2-((1,1-difluoro-6-aza-spiro[2.5]octan-6-yl)methyl)-5-methylpyrrolidin-1-yl)-2-oxoethyl)-2′,4′-dioxo-2,3-dihydrospiro[indene-1,5′-oxazolidine]-5-yl)-3-methylurea], for which the IC50 was > 2 µM.

`CNC(=O)Nc1ccc2c(c1F)CC[C@]21OC(=O)N(CC(=O)N2[C@@H](C)CC[C@H]2c2ccc(F)c(F)c2)C1=O` [Example 381, 1-((S)-3′-(2-((2S,5S)-2-(3,4-difluorophenyl)-5-methylpyrrolidin-1-yl)-2-oxoethyl)-4-fluoro-2′,4′-dioxo-2,3-dihydrospiro[indene-1,5′-oxazolidine]-5-yl)-3-methylurea]: the IC50 is > 2 µM.

Take `CNC(=O)Nc1ccc2c(c1F)CC[C@]21OC(=O)N(CC(=O)N2[C@@H](C)CC[C@H]2c2cc(F)c(F)c(F)c2)C1=O` [Example 382, 1-((S)-4-fluoro-3′-(2-((2S,5S)-2-methyl-5-(3,4,5-trifluorophenyl)pyrrolidin-1-yl)-2-oxoethyl)-2′,4′-dioxo-2,3-dihydrospiro[indene-1,5′-oxazolidine]-5-yl)-3-methylurea]: the IC50 was > 2 µM.

In the case of `CNC(=O)Nc1ccc2c(c1F)CC[C@@]21OC(=O)N(CC(=O)N2[C@@H](C)CC[C@H]2c2ccc(F)c(F)c2)C1=O` [Example 383, 1-((R)-3′-(2-((2S,5S)-2-(3,4-difluorophenyl)-5-methylpyrrolidin-1-yl)-2-oxoethyl)-4-fluoro-2′,4′-dioxo-2,3-dihydrospiro[indene-1,5′-oxazolidine]-5-yl)-3-methylurea], the IC50 was > 2 µM.

On to `CNC(=O)Nc1ccc2c(c1F)CC[C@@]21OC(=O)N(CC(=O)N2[C@@H](C)CC[C@H]2c2cc(F)c(F)c(F)c2)C1=O` [Example 384, 1-((R)-4-fluoro-3′-(2-((2S,5S)-2-methyl-5-(3,4,5-trifluorophenyl)pyrrolidin-1-yl)-2-oxoethyl)-2′,4′-dioxo-2,3-dihydrospiro[indene-1,5′-oxazolidine]-5-yl)-3-methylurea], for which the IC50 is > 2 µM.

In the case of `CNC(=O)Nc1cc(F)c2c(c1)CC[C@]21OC(=O)N(CC(=O)N2[C@@H](C)CC[C@H]2c2ccc(F)c(F)c2)C1=O` [Example 385, 1-((S)-3′-(2-((2S,5S)-2-(3,4-difluorophenyl)-5-methylpyrrolidin-1-yl)-2-oxoethyl)-7-fluoro-2′,4′-dioxo-2,3-dihydrospiro[indene-1,5′-oxazolidine]-5-yl)-3-methylurea], the IC50 was > 2 µM.

For the compound `CNC(=O)Nc1cc(F)c2c(c1)CC[C@]21OC(=O)N(CC(=O)N2[C@@H](C)CC[C@H]2c2cc(F)c(F)c(F)c2)C1=O` [Example 386, 1-((S)-7-fluoro-3′-(2-((2S,5S)-2-methyl-5-(3,4,5-trifluorophenyl)pyrrolidin-1-yl)-2-oxoethyl)-2′,4′-dioxo-2,3-dihydrospiro[indene-1,5′-oxazolidine]-5-yl)-3-methylurea], the IC50 was > 2 µM.

For `CNC(=O)Nc1cc(F)c2c(c1)CC[C@@]21OC(=O)N(CC(=O)N2[C@@H](C)CC[C@H]2c2ccc(F)c(F)c2)C1=O` [Example 387, 1-((R)-3′-(2-((2S,5S)-2-(3,4-difluorophenyl)-5-methylpyrrolidin-1-yl)-2-oxoethyl)-7-fluoro-2′,4′-dioxo-2,3-dihydrospiro[indene-1,5′-oxazolidine]-5-yl)-3-methylurea], the IC50 is 0.5 to 2 µM.

As for `CNC(=O)Nc1cc(F)c2c(c1)CC[C@@]21OC(=O)N(CC(=O)N2[C@@H](C)CC[C@H]2c2cc(F)c(F)c(F)c2)C1=O` [Example 388], the IC50 is > 2 µM.

Consider `CNC(=O)Nc1cc2c(cc1F)[C@]1(CC2)OC(=O)N(CC(=O)N2[C@@H](C)CC[C@H]2c2ccc(F)c(F)c2)C1=O` [Example 391, 1-((S)-3′-(2-((2S,5S)-2-(3,4-difluorophenyl)-5-methylpyrrolidin-1-yl)-2-oxoethyl)-6-fluoro-2′,4′-dioxo-2,3-dihydrospiro[indene-1,5′-oxazolidine]-5-yl)-3-methylurea], for which the IC50 is > 2 µM.

For the compound `CNC(=O)Nc1cc2c(cc1F)[C@]1(CC2)OC(=O)N(CC(=O)N2[C@@H](C)CC[C@H]2c2cc(F)c(F)c(F)c2)C1=O` [Example 392], the IC50 is 0.5 to 2 µM.

With `CNC(=O)Nc1ccc2c(c1)CC[C@@]21OC(=O)N(CC(=O)N2CCC[C@H]2c2ccccc2OC)C1=O` [compound 339], the half-inhibitory concentration (IC50) was > 2 µM.

Consider `CCc1cc(F)ccc1C1CCC(C)N1C(=O)CN1C(=O)O[C@@]2(CCc3cc(NC(=O)NC)ccc32)C1=O` (some centres unmarked) [compound 358], for which the IC50 lay within 0.5 to 2 µM.

As for `C[C@H]1CC[C@@H](c2ccc(F)cc2)N1C(=O)CN1C(=O)O[C@@]2(CCc3cc(N)ccc32)C1=O` [compound 372], the IC50 was > 2 µM.

The term IC50 denotes the concentration that gives 50% inhibition.
